The values that follow come from publication PMC6017736, “Indole-3-Carbonitriles as DYRK1A Inhibitors by Fragment-Based Drug Design” (Molecules : A Journal of Synthetic Chemistry and Natural …, 2018).

In general, IC50 refers to the concentration needed to halve the response being measured. By inhibition is commonly meant the change of the read-out against control, counted positive when it falls.

Marks after values point to notes of the source that are not given here.

One series deals with GSK-3. Nature of the series: Protein kinase assay ([γ-33P]-ATP, GS-1 substrate), GSK-3. Conditions: for IC50: read-out: IC50 GSK3, 15 µM ATP.
The target in the next series is CLK3 (Mus musculus, UniProt O35492). Description: Protein kinase assay ([γ-33P]-ATP, RS peptide substrate), CLK3. Conditions: for inhibition at 10 µM: 10 µM compound, read-out: Inhibition at 10 µM CLK3 (class symbol); for IC50: 15 µM ATP. The series is classed as biochemical. How it is done:
(§1) DYRK1A, 1B, 2, 3 (human, recombinant, expressed in E. coli as GST fusion proteins) and CLK1, 2, 3, and 4 (mouse, recombinant, expressed in E. coli as GST fusion proteins) were assayed as described for GSK-3 in Buffer A (supplemented extemporaneously with 0.15 mg BSA/mL + 1 mM DTT) with 1 µg of RS peptide ([…]) as a substrate.

The target of a further series is DYRK1B (Homo sapiens, UniProt Q9Y463). Nature of the series: Protein kinase assay ([γ-33P]-ATP, RS peptide substrate), DYRK1B. The format is biochemical. Particulars: 15 µM ATP; read-out: IC50 DYRK 1B. How it is done:
as §1

For series [1], the target named is T1, DYRK1A (Homo sapiens, UniProt Q13627). Nature of the series: Protein kinase assay ([γ-33P]-ATP, RS peptide substrate), DYRK1A. The format is biochemical. Conditions: 15 µM ATP; read-out: IC50 DYRK 1A.
A further series deals with CLK2 (Mus musculus, UniProt O35491). Nature of the series: Protein kinase assay ([γ-33P]-ATP, RS peptide substrate), CLK2. The series is classed as biochemical. Conditions: 15 µM ATP. How it is done: as §1
CLK2, sequence (O35491 whole entry): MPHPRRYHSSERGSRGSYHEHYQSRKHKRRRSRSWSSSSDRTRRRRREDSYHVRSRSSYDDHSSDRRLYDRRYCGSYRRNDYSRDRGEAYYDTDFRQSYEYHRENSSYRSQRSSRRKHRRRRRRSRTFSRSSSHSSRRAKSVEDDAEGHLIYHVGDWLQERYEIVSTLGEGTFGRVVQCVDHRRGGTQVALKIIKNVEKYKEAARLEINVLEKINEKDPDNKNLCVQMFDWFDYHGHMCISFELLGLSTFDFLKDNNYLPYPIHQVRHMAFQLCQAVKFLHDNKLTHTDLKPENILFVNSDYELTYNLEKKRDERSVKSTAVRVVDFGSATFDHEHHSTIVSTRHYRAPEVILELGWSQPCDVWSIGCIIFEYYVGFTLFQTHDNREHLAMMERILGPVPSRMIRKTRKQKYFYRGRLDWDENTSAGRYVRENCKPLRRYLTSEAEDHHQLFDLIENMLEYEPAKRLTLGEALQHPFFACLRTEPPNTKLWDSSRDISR
The target in another series is T2, DYRK3 (Homo sapiens, UniProt O43781).
T2 sequence (O43781 1-588): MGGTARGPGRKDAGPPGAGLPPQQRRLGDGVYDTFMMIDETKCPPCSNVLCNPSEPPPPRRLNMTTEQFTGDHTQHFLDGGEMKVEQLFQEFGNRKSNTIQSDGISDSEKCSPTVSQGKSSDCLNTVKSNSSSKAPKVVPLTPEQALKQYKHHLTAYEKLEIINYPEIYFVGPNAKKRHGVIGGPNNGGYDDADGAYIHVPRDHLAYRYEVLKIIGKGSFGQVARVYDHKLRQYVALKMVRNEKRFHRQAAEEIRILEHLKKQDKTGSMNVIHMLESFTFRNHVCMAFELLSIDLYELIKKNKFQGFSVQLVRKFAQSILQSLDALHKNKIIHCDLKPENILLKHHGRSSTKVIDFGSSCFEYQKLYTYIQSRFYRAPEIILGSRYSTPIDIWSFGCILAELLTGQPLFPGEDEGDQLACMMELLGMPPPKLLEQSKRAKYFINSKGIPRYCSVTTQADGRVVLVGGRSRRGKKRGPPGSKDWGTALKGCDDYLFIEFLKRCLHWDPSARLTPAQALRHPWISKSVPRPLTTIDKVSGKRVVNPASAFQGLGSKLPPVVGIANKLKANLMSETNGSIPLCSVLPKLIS
Nature of the series: Protein kinase assay ([γ-33P]-ATP, RS peptide substrate), DYRK3. The series is classed as biochemical. Particulars: for inhibition at 10 µM: 10 µM compound, read-out: Inhibition at 10 µM DYRK3 (class symbol); for IC50: 15 µM ATP. How it is done: as §1

Series [2] has as its target T1, DYRK1A. Description: Ligand-lipophilicity efficiency (pIC50 minus calculated logP). How it is done:
All new compounds were evaluated based on their physicochemical properties regarding Lipinski’s rule of five and the ligand-lipophilicity efficiency (LLE). Both concepts are used to assess the druglikeness of drug development candidates. […] LLE is calculated from pIC50 minus calculated logP [46].

The target in the next series is T3, DYRK2 (Homo sapiens, UniProt Q92630).
T3 sequence (Q92630 1-601): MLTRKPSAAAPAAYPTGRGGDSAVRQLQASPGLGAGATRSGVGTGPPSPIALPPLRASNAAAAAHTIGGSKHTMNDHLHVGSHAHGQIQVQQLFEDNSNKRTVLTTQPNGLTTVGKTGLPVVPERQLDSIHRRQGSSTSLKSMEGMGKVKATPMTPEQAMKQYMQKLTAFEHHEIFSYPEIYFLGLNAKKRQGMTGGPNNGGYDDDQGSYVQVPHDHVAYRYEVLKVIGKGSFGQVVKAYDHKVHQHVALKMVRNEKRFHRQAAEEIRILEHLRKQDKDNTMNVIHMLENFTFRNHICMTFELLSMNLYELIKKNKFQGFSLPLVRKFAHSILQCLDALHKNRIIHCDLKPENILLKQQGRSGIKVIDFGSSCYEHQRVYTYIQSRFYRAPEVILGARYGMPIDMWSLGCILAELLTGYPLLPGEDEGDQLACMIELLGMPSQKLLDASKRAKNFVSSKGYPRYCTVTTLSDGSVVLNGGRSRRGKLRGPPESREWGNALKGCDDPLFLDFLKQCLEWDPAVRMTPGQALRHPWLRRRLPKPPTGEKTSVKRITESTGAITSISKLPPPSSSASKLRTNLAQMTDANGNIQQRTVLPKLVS
Description: Protein kinase assay ([γ-33P]-ATP, RS peptide substrate), DYRK2. The series is classed as biochemical. Conditions: for inhibition at 10 µM: 10 µM compound, read-out: Inhibition at 10 µM DYRK2 (class symbol); for IC50: 15 µM ATP. How it is done:
as §1

Series [3] can be described thus: Thermodynamic solubility, shake-flask method with HPLC quantification. The format is physicochemical. Conditions: phosphate buffer pH 7.4, 25 °C. How it is done:
For solubility assays an aqueous phosphate buffer pH 7.4 was used. The buffer was prepared by dissolving Na2HPO4 × 2 H2O (298 mg), KH2PO4 (19 mg) and NaCl (800 mg) in water (100 mL). The pH was adjusted to 7.4 by addition of hydrochloric acid. The thermodynamic solubility was determined using a shake-flask method with quantification by a HPLC method. The test compounds (500 µg) were incubated with aqueous phosphate buffer pH 7.4 (400 µL) in sealed Whatman MiniUniPrep vials (GE Healthcare, Freiburg, Germany). The mixtures were shaken at 25 °C and 400 rpm for 24–96 h (IKA KS 3000 ic control, IKA-Werke, Staufen, Germany). After 24 h, 48 h and 72 h, the mixtures were visually inspected for remaining solids and the solids were filtered off. The concentrations in the resulting saturated solutions were quantified by isocratic HPLC using calibration with external standard. If equilibrium was not reached after 72 h, solubility of a further sample was determined after 96 h. For calibration, a stock solution of 10 mM of the test compounds in DMSO was prepared and the stock solution was diluted with ACN to suitable concentrations. The AUC at the wavelength maxima was used for quantification.

Another series addresses CLK1 (Mus musculus, UniProt P22518). Nature of the series: Protein kinase assay ([γ-33P]-ATP, RS peptide substrate), CLK1. The series is classed as biochemical. Conditions: 15 µM ATP. How it is done:
as §1

The target in the next series is CLK4 (Mus musculus, UniProt O35493). Description: Protein kinase assay ([γ-33P]-ATP, RS peptide substrate), CLK4. The series is classed as biochemical. Conditions: 15 µM ATP. How it is done: as §1
CLK4, sequence (O35493 whole entry): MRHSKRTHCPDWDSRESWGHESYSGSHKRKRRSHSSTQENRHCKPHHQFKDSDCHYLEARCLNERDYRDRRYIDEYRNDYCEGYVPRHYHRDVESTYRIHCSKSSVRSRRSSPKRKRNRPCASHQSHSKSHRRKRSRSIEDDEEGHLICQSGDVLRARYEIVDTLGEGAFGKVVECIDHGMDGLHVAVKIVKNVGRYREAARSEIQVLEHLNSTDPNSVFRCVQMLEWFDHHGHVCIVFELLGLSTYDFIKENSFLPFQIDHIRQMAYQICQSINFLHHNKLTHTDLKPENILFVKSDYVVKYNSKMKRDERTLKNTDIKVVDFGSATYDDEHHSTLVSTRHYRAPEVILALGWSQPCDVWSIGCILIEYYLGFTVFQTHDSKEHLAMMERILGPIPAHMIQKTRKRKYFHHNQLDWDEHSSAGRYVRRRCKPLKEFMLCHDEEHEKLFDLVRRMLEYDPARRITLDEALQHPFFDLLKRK
A short description of series [4]: Kinetic solubility, laser nephelometry. The format is physicochemical. Particulars: phosphate buffer pH 7.4, nephelometry. How it is done: The kinetic solubility was determined using laser nephelometry. A stock solution of the test compounds in DMSO was prepared and further diluted with DMSO to achieve a dilution series of 8–12 solutions with different concentrations. The DMSO solutions (2 µL) were placed in a row on a 96-well plate and diluted with aqueous phosphate buffer pH 7.4 (198 µL). The well plate was scanned by a nephelometer (Nephelostar Plus, BMG Labtech, Ortenberg, Germany). Unsolved particles scatter the laser light which is detected by the nephelometer. The intensity of the scattered light is proportional to the particle concentration in the suspension. The intensity of the scattered light was plotted versus the concentration to obtain a kick off curve. The concentration at which the compounds began to precipitate was directly read out from the kick off curve.

The mark [5] stands for this setting: pIC50 (DYRK1A) minus calculated logP.

DYRK1B, sequence (Q9Y463 whole entry): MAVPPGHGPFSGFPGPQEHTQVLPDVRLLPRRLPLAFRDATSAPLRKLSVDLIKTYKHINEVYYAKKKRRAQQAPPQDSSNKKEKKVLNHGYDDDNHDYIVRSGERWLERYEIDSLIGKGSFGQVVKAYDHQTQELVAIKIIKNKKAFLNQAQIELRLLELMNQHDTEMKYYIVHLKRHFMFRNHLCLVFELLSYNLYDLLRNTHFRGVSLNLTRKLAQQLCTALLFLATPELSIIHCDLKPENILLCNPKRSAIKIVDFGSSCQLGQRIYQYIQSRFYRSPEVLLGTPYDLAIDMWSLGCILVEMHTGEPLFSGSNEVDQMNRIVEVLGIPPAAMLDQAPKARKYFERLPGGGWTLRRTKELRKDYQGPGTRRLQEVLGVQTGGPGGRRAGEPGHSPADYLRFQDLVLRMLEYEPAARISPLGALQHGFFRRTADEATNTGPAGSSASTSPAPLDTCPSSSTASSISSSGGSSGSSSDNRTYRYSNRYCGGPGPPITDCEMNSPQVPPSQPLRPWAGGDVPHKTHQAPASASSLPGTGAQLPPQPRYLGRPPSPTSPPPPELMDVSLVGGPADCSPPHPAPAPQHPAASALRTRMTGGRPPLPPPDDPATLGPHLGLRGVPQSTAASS
CLK1, sequence (P22518 whole entry): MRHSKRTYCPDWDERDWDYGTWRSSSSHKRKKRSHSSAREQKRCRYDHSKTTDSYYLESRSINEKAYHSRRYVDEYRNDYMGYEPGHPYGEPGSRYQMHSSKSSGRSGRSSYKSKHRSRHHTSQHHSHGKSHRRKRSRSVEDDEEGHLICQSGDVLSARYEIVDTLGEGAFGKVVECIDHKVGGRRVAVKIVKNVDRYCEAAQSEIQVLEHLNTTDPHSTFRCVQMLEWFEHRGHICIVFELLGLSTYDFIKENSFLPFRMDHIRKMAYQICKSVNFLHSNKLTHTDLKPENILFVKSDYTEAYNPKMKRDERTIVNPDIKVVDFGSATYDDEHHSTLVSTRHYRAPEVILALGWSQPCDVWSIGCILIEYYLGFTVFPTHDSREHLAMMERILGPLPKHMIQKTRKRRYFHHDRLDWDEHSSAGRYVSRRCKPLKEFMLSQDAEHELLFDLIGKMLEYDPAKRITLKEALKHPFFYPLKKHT
CLK3, sequence (O35492 whole entry, the tested form may be a part): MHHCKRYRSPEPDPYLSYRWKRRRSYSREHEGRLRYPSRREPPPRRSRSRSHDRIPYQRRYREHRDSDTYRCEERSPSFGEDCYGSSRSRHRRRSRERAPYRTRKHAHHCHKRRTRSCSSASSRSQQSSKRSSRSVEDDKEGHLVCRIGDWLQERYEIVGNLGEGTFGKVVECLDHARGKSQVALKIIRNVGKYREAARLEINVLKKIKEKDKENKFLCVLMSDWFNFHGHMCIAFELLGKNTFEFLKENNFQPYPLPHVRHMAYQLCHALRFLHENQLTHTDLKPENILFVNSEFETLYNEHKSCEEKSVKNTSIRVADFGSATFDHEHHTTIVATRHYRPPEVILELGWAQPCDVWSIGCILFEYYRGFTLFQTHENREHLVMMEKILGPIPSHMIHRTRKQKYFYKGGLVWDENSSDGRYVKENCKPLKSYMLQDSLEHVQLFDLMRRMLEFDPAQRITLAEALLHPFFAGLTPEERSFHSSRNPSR
Description for GSK-3: First, the kinases were incubated with 10 µM solutions of the compounds and the residual activities compared to controls were measured.
Controls were performed with appropriate dilutions of DMSO. The GS-1 and RS peptide substrates were obtained from Proteogenix (Oberhausbergen, France).
After 30 min incubation at 30 °C, the reaction was stopped by harvesting onto P81 phosphocellulose supernatant (Whatman) using a FilterMate harvester (Packard) and washing in 1% phosphoric acid. Scintillation fluid was added and the radioactivity measured in a Packard counter [52].
All data points for construction of dose response curves were recorded in triplicate.

For `N#Cc1c(CC(O)CO)[nH]c2c(Cl)cccc12` (centres unmarked) [Compound 14, 7-Chloro-2-(2,3-dihydroxypropyl)-1H-indole-3-carbonitrile], the IC50 came out at 2000 nM on GSK-3; 4200 nM on DYRK1B; 2000 nM on DYRK1A [1]; 10000 nM at CLK2; 2000 nM against CLK1; 2000 nM against CLK4. The inhibition at 10 µM at CLK3, on DYRK3 and at DYRK2 was under 20% each time. Moreover, the LLE on DYRK1A [2] (Table S2) and on DYRK1A [2] (setting [5]) was 4.59 throughout. Further, the “Sexp., therm., pH 7.4” value in series [3] was 3447 ± 182 ^c µM.

Turning to `Cn1cc(C#N)c2cccc(Br)c21` [Compound 13d, 7-Bromo-1-methyl-1H-indole-3-carbonitrile], the IC50 on GSK-3 was over 10000 nM; against CLK3 it was over 10000 nM; on DYRK1B, over 10000 nM; at DYRK1A [1], 1900 nM; on CLK2, over 10000 nM; against DYRK3, over 10000 nM. Besides, the half-maximal inhibitory concentration (IC50) at DYRK2 is over 10000 nM; against CLK1 it was 3330 nM; against CLK4 it was over 10000 nM. Besides, the LLE on DYRK1A [2] (Table S2) was 2.80.

Turning to `N#Cc1c(-c2ccccc2)[nH]c2ccccc12` [Compound 6d, 2-Phenyl-1H-indole-3-carbonitrile], the “Inhibition at 10 µM GSK3 (class symbol)” value in the series on GSK-3 (10 µM compound) is given as “- (-: less than 20% inhibition at 10 µM, IC50 was not determined)”. The inhibition at 10 µM on CLK3, at DYRK3 and on DYRK2 was under 20% each time. Moreover, the IC50 on DYRK1B was 6000 nM; at DYRK1A [1], 400 nM; against CLK2 it was over 10000 nM; on CLK1, 800 nM; at CLK4, 2000 nM. In addition, at DYRK1A [2] (Table S2), the LLE is 2.90.

For `N#Cc1c[nH]c2c(I)cccc12` [Compound 6c, 7-Iodo-1H-indole-3-carbonitrile], the IC50 is over 10000 nM against CLK3; 1800 nM at DYRK1B; 8000 nM on CLK2; over 10000 nM against DYRK3; 8000 nM against DYRK2; 1900 nM against CLK1. The compound also gave an IC50 against CLK4 of 1800 nM. For the same compound, in [4], the “Sexp., kin., pH 7.4” value is on record as 261 (254–267) µM. Further, the “Sexp., therm., pH 7.4” value in [3] was 45.2 (44.8–45.6) µM.

As to `N#Cc1c(-c2cccnc2)[nH]c2c(I)cccc12` [Compound 6p, 7-Iodo-2-(pyridin-3-yl)-1H-indole-3-carbonitrile], the inhibition at 10 µM at CLK3, on DYRK3 and at DYRK2 was under 20% throughout. The IC50 on DYRK1B is 300 nM; on DYRK1A [1] it was 80 nM; against CLK2, over 10000 nM; against CLK1 it was 200 nM; at CLK4, over 10000 nM. In addition, in series [4], the “Sexp., kin., pH 7.4” value is 10.0 (7.21–12.9) µM. Also, the LLE on DYRK1A [2] (Table S2) and on DYRK1A [2] (setting [5]) was 3.89 in each case.

In the case of `N#Cc1c[nH]c2c(Br)cccc12` [Compound 6b, 7-Bromo-1H-indole-3-carbonitrile], the IC50 against CLK3 was over 10000 nM; at DYRK1B, 5900 nM; against CLK2, over 10000 nM; against DYRK3, over 10000 nM; at DYRK2, over 10000 nM; at CLK1 it was 2900 nM. This compound also showed an IC50 against CLK4 of 4000 nM. In addition, the “Sexp., kin., pH 7.4” value in [4] is 142 ± 14 µM. For the same compound, the “Sexp., therm., pH 7.4” value in series [3] is 136 ± 11 µM.

In the case of `CC(C)c1[nH]c2c(I)cccc2c1C#N` [Compound 6q, 7-Iodo-2-isopropyl-1H-indole-3-carbonitrile], the IC50 at GSK-3 was 1300 nM; against CLK3, over 10000 nM; on DYRK1B, 530 nM; on DYRK1A [1] it was 280 nM; against CLK2, 700 nM; at DYRK3, over 10000 nM. The figures for the half-maximal inhibitory concentration (IC50) against DYRK2, at CLK1 and against CLK4 were over 10000 nM, 100 nM and 100 nM, respectively. Also, at DYRK1A [2] (Table S2), the LLE is 2.61.

`N#Cc1c(-c2ccccc2)[nH]c2c(Br)cccc12` [Compound 6g, 7-Bromo-2-phenyl-1H-indole-3-carbonitrile]: the IC50 on CLK3 was over 10000 nM; at DYRK1B, 120 nM; on DYRK1A [1] it was 25 nM; on CLK2, 433 nM; at DYRK3 it was over 10000 nM; against DYRK2 it was over 10000 nM. Moreover, the concentration for half-maximal inhibition (IC50) amounted to 67 nM against CLK1 and 33 nM at CLK4. Moreover, the “Sexp., kin., pH 7.4” value in series [4] is on record as 14.8 ± 0.26 µM. The LLE on DYRK1A [2] (Table S2) and at DYRK1A [2] (setting [5]) was 3.34 each time. The “Sexp., therm., pH 7.4” value in series [3] is reported as under 0.5 µM.
